Measurements from article PMC11637483, “Dissecting caspase-2-mediated cell death: from intrinsic PIDDosome activation to chemical modulation” (Protein & Cell, 2024).

Tested on: HeLa-CASP2/CASP3/GSDMD TKO + CASP2 cells (human caspase-2)
Assay: ATP-based cell viability (CellTiter-Glo) in HeLa TKO cells with exogenous caspase-2 expression
Settings: immunoblotting, HUHS015-treated cells
Description: Specific chemical compounds are powerful tools for dissecting target-related signaling mechanisms in biological contexts ([Beck et al., 2022]; [Zhang et al., 2012]). Prompted by this notion and possibly to identify a compound that could activate the PIDDosome, we designed a cell death-based high-throughput chemical screen in HeLa cells, in which a triple knockout of CASP2, CASP3, and GSDMD were constructed. CASP3 and GSDMD deficiency served as the background to minimize compound-induced nonspecific cytotoxicity and undesired pyroptosis. Using the triple knockout cells as the control, additional expression of exogenous caspase-2 allows the identification of compounds that can specifically activate the caspase-2-BID pathway and trigger apoptosis through caspase-7. […] In accordance with the apoptosis induction, HUHS015 induced evident processing of caspase-2 expressed in the triple-knockout cells (Fig. 3B). This indicated activation of caspase-2 as the protease-deficient C320A mutant of caspase-2 was not processed upon HUHS015 treatment (Fig. 3B). Accordingly, expression of caspase-2 C320A rendered no cell death in response to HUHS015 treatment (Fig. 3B).
Figure 3. Chemical screen identifies HUHS015 as an agonist of human caspase-2. (A) Screen raw data and selectivity analyses of the compound plate containing HUHS015. The ATP-based viability data of both HeLa-CASP2^−/−CASP3^−/−GSDMD^−/− (TKO) (control group) and TKO cells with exogenous caspase-2 expression (experimental group) are shown. The ratios of the cell viability between the two groups are calculated with 3 as a cutoff for positive compound hit selection. (B) HUHS015-induced cell death depends on caspase-2 activity. HeLa TKO cells expressing WT or enzymatically deficient C320A mutant of caspase-2 were treated with HUHS015. ATP-based cell viability and immunoblotting of caspase-2 cleavage are shown. (C and F) The structures and potencies of HUHS15 (C) and its optimized derivative HUHS15-036 (F). HeLa TKO cells with exogenous caspase-2 expression were treated with titrated compounds. The ATP-based viability data were plotted with compound concentration for EC50 calculation. (D) BID is required for HUHS15-induced caspase-2-dependent cell death. […] Processing of caspase-2, -3, and -7 was analyzed by immunoblotting. […] ATP-based cell viability in panels (B and D) is expressed as mean ± s.d. from three technical replicates. […]
Cell viability was measured by the ATP assay using the CellTiter-Glo® Luminescent Cell Viability Assay kit (Promega).
Drug-related Screening Library (25 × 384-well plate, more than 7,000 compounds) was used for the chemical screen in the TKO HeLa cells rescued with exogenous caspase-2 expression. […] After treatment for 12 h, the cell viability was measured by the ATP assay. […]

With zVAD [reference compound] the “block of HUHS015-induced caspase-2 processing” value was “not blocked”.
